{"source": "patent US12479928B2", "about": "“Anti-cancer peptide” (Minerva Biotechnologies Corporation, priority 2014, dated 2025)", "key": {"[1]": {"test_system": "Human stem cells (iPS cat #SC101a-1)", "test": "Human stem cell growth and pluripotency in NME7-AB or NM23-H1 dimers", "assay_type": "cell-based", "conditions": "8 nM in Minimal Stem Cell Media", "method": "For testing recombinant NME7-AB for ability to maintain pluripotency and inhibit differentiation, a soluble variant of NME7, NME7-AB, was generated and purified. Human stem cells (iPS cat #SC101a-1, System Biosciences) were grown per the manufacturer's directions in 4 ng/ml bFGF over a layer of mouse fibroblast feeder cells for four passages. These source stem cells were then plated into 6-well cell culture plates (Vita™, Thermo Fisher) that had been coated with 12.5 ug/well of a monoclonal anti-MUC1* antibody, MN-C3. Cells were plated at a density of 300,000 cells per well. The base media was Minimal Stem Cell Media consisting of: 400 ml DME/F12/GlutaMAX I (Invitrogen #10565-018), 100 ml Knockout Serum Replacement (KO-SR, Invitrogen #10828-028), 5 ml 100×MEM Non-essential Amino Acid Solution (Invitrogen #11140-050) and 0.9 ml (0.1 mM) β-mercaptoethanol (55 mM stock, Invitrogen #21985-023). The base media can be any media. In a preferred embodiment, the base media is free of other growth factors and cytokines. To the base media was added either 8 nM of NME7-AB or 8 nM NM23-H1 refolded and purified as stable dimers. Media was changed every 48 hours and due to accelerated growth, had to be harvested and passaged at Day 3 post-plating.\nCell counts at the first harvest verified that culture in NME7 produced 1.4-times more cells than culture in NM23-H1 dimers."}, "[2]": {"target": "T1, binding of human NME7 to synthetic MUC1* peptide (Homo sapiens, UniProt P15941)", "T1 construct": "made in house; host or cells: E. coli", "T1 sequence (P15941 1110-1154 limits assumed)": "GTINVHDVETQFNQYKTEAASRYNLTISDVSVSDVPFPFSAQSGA", "test": "ELISA: inhibition of NME7 binding to immobilized MUC1* peptide", "conditions": "free peptides", "text": "Those antibodies that inhibit cancer growth or transition to a more metastatic state are selected for use as anti-cancer therapeutics and may be administered to a patient for the treatment or prevention of cancers. Selected antibodies may be further optimized for example by engineering or making human chimera antibodies or fully human antibodies. […] We then generated antibodies using these peptides and then tested both the resultant antibodies as well as the immunizing peptides for their ability to: a) inhibit cancerous growth; and b) inhibit the induced transition from cancer cells to metastatic cancer cells. NME7 peptides were selected as immunizing agents for antibody production and as inhibitory agents themselves (FIG. 19 and Example 11). Peptides A1 (SEQ ID NO:141), A2 (SEQ ID NO:142), B1 (SEQ ID NO:143), B2 (SEQ ID NO:144) and B3 (SEQ ID NO:145), wherein A refers to the domain from which the peptide is derived, i.e. the NDPK A domain and the B denotes that the peptide is derived from the NDPK B domain (FIG. 15). Each peptide was used as an immunogen and injected into 2 rabbits each for production of polyclonal antibodies. The antibodies that were harvested from the blood of the immunized rabbits were purified over a column derivatized with the immunizing peptide. The purified antibodies were then tested for their ability to bind to human NME7. All of the resultant antibodies bound to human NME7 but not human NME1 as desired (FIG. 26A-B, Example 12). […] The antibodies were also tested for their ability to inhibit the binding of NME7 to a MUC1* extracellular domain peptide.\n(§1) NME7 peptides were selected as immunizing agents for antibody production. NME7 peptides A1, A2, B1, B2 and B3 (FIG. 19) were chosen using a process of sequence alignment among human NME1, human NME7 and several bacterial NMEs that were homologous to human NME1 or human NME7. Five regions that had high sequence homology among all were identified. However, to prevent selecting peptides that would give rise to antibodies that would inhibit human NME1 as well as human NME7, we chose NME7 sequences that were adjacent to the homologous regions wherein those peptides had sequences that were different from human NME1. We did ELISA assays to see if the peptides on their own could bind to a synthetic MUC1* peptide on the surface and inhibit the binding of human NME7 or human NME1 to the immobilized peptide (FIG. 27)."}, "[3]": {"target": "T2, binding of human NME1 to synthetic MUC1* peptide (Homo sapiens, UniProt P15941)", "T2 sequence (P15941 1110-1154 limits assumed)": "T1 sequence (P15941 1110-1154 limits assumed)", "test": "ELISA: inhibition of NME1 binding to immobilized MUC1* peptide", "conditions": "free peptides", "text": "as §1"}, "[4]": {"test_system": "T47D breast cancer cells", "test": "Cancer cell growth inhibition by anti-NME7 specific antibodies and immunizing peptides (Example 13)", "assay_type": "cell-based, human", "conditions": "added separately; RPMI with serum", "method": "Rabbits were immunized with NME7 peptides A1, A2, B1, B2, and B3 and antibodies were generated, collected and purified over a column to which the immunizing peptide had been conjugated. T47D breast cancer cells were plated and cultured according to ATCC protocols in RPMI media supplemented with serum. Immunizing peptides A1, A2, B1, B2, and B3, and the PSMGFR extracellular domain peptide of MUC1*, “FLR” here, were also added separately to growing T47D breast cancer cells. Taxol and the E6 anti-MUC1* Fab were added as controls. […] Note the comparison to inhibition using Taxol, which is a chemotherapy agent that kills healthy and cancer cells alike. Also, for comparison, a polyclonal antibody generated using a large stretch of NME7 from amino acid 100 to 376 is shown.\nIn a similar experiment, combinations of the antibodies generated from immunization with peptides A1, A2, B1, B2, and B3 as well as the peptides themselves were added to growing cancer cells at the concentrations indicated. […] In these two experiments, the cells were MUC1* positive breast cancer cells."}, "[5]": {"test_system": "T47D breast cancer cells", "test": "Inhibition of NME7-AB or 2i induced transition of cancer cells to metastatic cancer cells (floaters, RT-PCR)", "assay_type": "cell-based, human", "conditions": "for expression of metastasis marker CXCR4 (RT-PCR) / floater cells (change from adherent cells to floaters): cells grown in NME7-AB or 2i; for floater cells (change from adherent cells to floaters): visual observation; for inhibition of transition to a more metastatic state (RT-PCR CXCR4, CHD1, SOX2): peptides alone, transition induced by 2i inhibitors", "method": "In one example, NME7-AB specific antibodies, generated by immunization with NME7-derived peptides A1, A2, B1, B2 and B3, as well as the immunizing peptides themselves, were added into the media along with either NME7-AB or 2i to determine if they inhibited the transformation of regular cancer cells to metastatic cancer stem cells. Antibodies and peptides were separately added along with the agent that causes metastatic transformation; in this case NME7-AB or the 2i inhibitors PD0325901 and CHIR99021. NME7-AB and 2i were separately used to induce the cancer cells to be transformed to a more aggressive metastatic state. 2i was used so that it could not be argued that the antibodies that were added to the media simply sopped up all of the NME7-AB so that the causative agent effectively was not there (Example 14).\nVisual observation was independently recorded by two scientists as the experiment progressed (FIG. 30). […] The amount of mRNA, which indicates cell viability and growth, was measured. […] RT-PCR was used to measure expression levels of metastatic markers, including CXCR4.\nIn another experiment, the free peptides A1, A2, B1, B2 and B3 were added to cancer cells in culture that were undergoing transition to a more metastatic state by culturing in either NME7-AB or 2i.\nIn the first of these experiments, the antibodies generated by immunization with A1, A2, B1, B2 and B3 were tested for their ability to inhibit the metastatic transition induced by culture of T47D breast cancer cells in NME7-AB or in 2i inhibitors.\nRT-PCR was used to measure expression levels of metastatic markers, including CXCR4. […] (See FIG. 31). […] Peptide B3 was especially effective as was antibody #61 that it generated. […] The amount of mRNA, which indicates cell viability and growth, was measured."}}, "note": "“Also recorded” adds a separate entry of the source.", "data": [{"substance": "NM23-H1 (NME1) dimers: NM23-H1 refolded and purified as stable dimers", "values": [{"measurement": "pluripotent stem cell growth / differentiation", "setting": "[1]", "value": "no differentiation even when 100% confluent"}]}, {"substance": "EVYKGVVTEYHDMVTE (peptide B2)", "values": [{"measurement": "inhibition of binding of NME7 to immobilized MUC1* peptide", "setting": "[2]", "value": "inhibited the binding"}, {"measurement": "inhibition of binding of NME1 to immobilized MUC1* peptide", "setting": "[3]", "value": "inhibited the binding"}, {"measurement": "inhibition of cancer cell growth", "setting": "[4]", "value": "potently inhibited the growth"}, {"measurement": "expression of metastasis marker CXCR4 (RT-PCR)", "setting": "[5]", "value": "inhibited the increase in expression"}, {"measurement": "floater cells (change from adherent cells to floaters)", "setting": "[5]", "value": "inhibited the morphological change"}, {"measurement": "inhibition of transition to a more metastatic state (RT-PCR CXCR4, CHD1, SOX2)", "setting": "[5]", "value": "potently inhibit"}]}, {"substance": "SGVARTDASES (peptide A2)", "values": [{"measurement": "inhibition of binding of NME7 to immobilized MUC1* peptide", "setting": "[2]", "value": "inhibited the binding"}, {"measurement": "inhibition of binding of NME1 to immobilized MUC1* peptide", "setting": "[3]", "value": "inhibited the binding"}, {"measurement": "inhibition of cancer cell growth", "setting": "[4]", "value": "potently inhibited the growth"}, {"measurement": "expression of metastasis marker CXCR4 (RT-PCR)", "setting": "[5]", "value": "inhibited the increase in expression"}, {"measurement": "floater cells (change from adherent cells to floaters)", "setting": "[5]", "value": "inhibited the morphological change"}, {"measurement": "inhibition of transition to a more metastatic state (RT-PCR CXCR4, CHD1, SOX2)", "setting": "[5]", "value": "potently inhibit"}]}, {"substance": "MLSRKEALDFHVDHQS (peptide A1)", "values": [{"measurement": "inhibition of binding of NME7 to immobilized MUC1* peptide", "setting": "[2]", "value": "inhibited the binding"}, {"measurement": "inhibition of binding of NME1 to immobilized MUC1* peptide", "setting": "[3]", "value": "inhibited the binding"}, {"measurement": "inhibition of cancer cell growth", "setting": "[4]", "value": "potently inhibited the growth"}, {"measurement": "expression of metastasis marker CXCR4 (RT-PCR)", "setting": "[5]", "value": "inhibited the increase in expression"}, {"measurement": "floater cells (change from adherent cells to floaters)", "setting": "[5]", "value": "inhibited the morphological change"}, {"measurement": "inhibition of transition to a more metastatic state (RT-PCR CXCR4, CHD1, SOX2)", "setting": "[5]", "value": "potently inhibit"}]}, {"substance": "DAGFEISAMQMFNMDRVNVE (peptide B1)", "values": [{"measurement": "inhibition of binding of NME7 to immobilized MUC1* peptide", "setting": "[2]", "value": "inhibited the binding"}, {"measurement": "inhibition of binding of NME1 to immobilized MUC1* peptide", "setting": "[3]", "value": "inhibited the binding"}, {"measurement": "inhibition of cancer cell growth", "setting": "[4]", "value": "potently inhibited the growth"}, {"measurement": "expression of metastasis marker CXCR4 (RT-PCR)", "setting": "[5]", "value": "inhibited the increase in expression"}, {"measurement": "floater cells (change from adherent cells to floaters)", "setting": "[5]", "value": "inhibited the morphological change"}, {"measurement": "inhibition of transition to a more metastatic state (RT-PCR CXCR4, CHD1, SOX2)", "setting": "[5]", "value": "potently inhibit"}]}, {"substance": "AIFGKTKIQNAVHCTDLPEDGLLEVQYFF (peptide B3)", "values": [{"measurement": "inhibition of binding of NME7 to immobilized MUC1* peptide", "setting": "[2]", "value": "inhibited the binding"}, {"measurement": "inhibition of binding of NME1 to immobilized MUC1* peptide", "setting": "[3]", "value": "inhibited the binding"}, {"measurement": "inhibition of cancer cell growth", "setting": "[4]", "value": "potently inhibited the growth"}, {"measurement": "expression of metastasis marker CXCR4 (RT-PCR)", "setting": "[5]", "value": "inhibited the increase in expression"}, {"measurement": "floater cells (change from adherent cells to floaters)", "setting": "[5]", "value": "inhibited the morphological change"}, {"measurement": "inhibition of transition to a more metastatic state (RT-PCR CXCR4, CHD1, SOX2)", "setting": "[5]", "value": "potently inhibit; also recorded: most inhibitory"}]}]}
